Patent US10850134B2, “Method and kit for home controlled ovarian stimulation for in vitro fertilization” (priority 2019, dated 2020)
Several values for one entry are separate records, joined by “and”; a condition that tells them apart may be missing. Equal values may be shown once.

What was measured:
[1] = test system: Luteinizing hormone (LH) blood level; test: LH blood level in patients on home controlled ovarian hyperstimulation method with vaginal elagolix (Example 2); type: in vivo, female patients; settings: for Luteinizing hormone (LH) blood level: 50 mg elagolix vaginal suppository days 9 and 11
Procedure: Five female patients were treated with the controlled ovarian hyperstimulation method described herein using the elagolix pill (vaginal route) instead of the conventional Ganirelex/Cetrotide injectables. On day 3 of the patient's menstrual cycle, the patient orally took 100 mg (two 50 mg oral tablets) of clomiphene citrate and 5 mg (two 2.5 mg oral tablets) of letrozole. The patient then took the same oral dosages of clomiphene citrate and letrozole daily on each of days 4-7 of the patient's menstrual cycle. On day 8 of the patient's menstrual cycle, the patient orally took only 100 mg (two 50 mg oral tablets) of clomiphene citrate, and stopped the letrozole. On day 9 of the menstrual cycle, the patient orally took 100 mg (two 50 mg oral tablets) of clomiphene citrate and inserted vaginally a 50 mg tablet of elagolix as a vaginal suppository. On day 10 of the menstrual cycle, the patient orally took only 100 mg (two 50 mg oral tablets) of clomiphene citrate. On day 11 of the menstrual cycle, the patient orally took 100 mg (two 50 mg oral tablets) of clomiphene citrate and inserted vaginally a 50 mg tablet of elagolix as a vaginal suppository. Also, on day 11, the patient took a home ovulation test in the morning (9:00 am) and in the evening (9:00 pm). For the patients whose ovulation tests were not positive, then on days 12 and 13, the patient took 2 doses of leuprorelin as a nasal spray (1:40 dilution in saline) as follows. On day 12, after taking a home ovulation test at 9:00 am, 2 puffs (sprays) of the nasal spray were self-administered by the patient per nostril. After 12 hours of waiting, at 9:00 pm the patient took a home urine ovulation test and then self-administered 2 more puffs (sprays) of the nasal spray per nostril. On day 13, the patient repeated the procedure of day 12. Luteinizing hormone (LH) blood level was 7.0 mIU/mL on day 11 and dropped to 1.0 mIU/mL on day 13.
(§1) Table 2 below provides a comparison of the efficacy of conventional Ganirelex/Cetrotide injectables treatment for IVF in the five representative patients from Example 1 with the home controlled ovarian hyperstimulation method described herein in the five representative patients from Example 2.

[2] = test system: Luteinizing hormone (LH) blood level; test: LH blood level in patients on GnRH antagonist protocol with ganirelix acetate injections (Example 1); type: in vivo, female patients
Procedure: Five female patients were treated with a GnRH antagonist protocol requiring injections of medications.
One patient, patient no. 1, was injected with 150 Units of FSH on days 3 to 12; half a syringe of 150 mcg/0.5 mL of ganirelix acetate on days 11 and 12; and 50 mg of clomiphene citrate on days 3 to 12; and 2.5 mg of letrozole on days 3 to 7. Luteinizing hormone (LH) blood level was 4.3 mIU/mL on day 10 and dropped to 2 mIU/mL on day 12.
A second patient, patient no. 2, was injected with 75 Units of FSH on days 4 to 12 and 150 Units on day 13; half a syringe of 150 mcg/0.5 mL of ganirelix acetate on days 11 to 13; 50 mg of clomiphene citrate on days 10 to 12, and 2.5 mg of letrozole on days 3 to 7. Luteinizing hormone (LH) blood level was 12.0 mIU/mL on day 11 and dropped to 6.3 mIU/mL on day 13.
Three patients, numbered 3 to 5, were injected with 75, 150 and 225 Units of FSH, respectively, on days 4 to 12 and one third a syringe of 150 mcg/0.5 mL of ganirelix acetate on days 11 to 13. Patient no. 3 received 50 mg of clomiphene citrate on days 4 to 12, and 2.5 mg of letrozole on days 4 to 8. Patient no. 4 received 100 mg of clomiphene citrate and 2.5 mg of letrozole on days 4 to 8, and 50 mg of clomiphene citrate on days 9 to 11. Patient no. 5 received no clomiphene citrate or letrozole. Luteinizing hormone (LH) blood level was 12.0, 18.0 and 14.6 mIU/mL, respectively, on day 10 and dropped to 4.9, 16.0 and 14.1 mIU/mL, respectively, on day 12.
as §1

[3] = Example 2, vaginal elagolix suppository 50 mg days 9 and 11, individual patients 1-5, blood
[4] = Example 1, conventional injectables, individual patients 1-5, blood

Q: Which results are given for `COc1cccc(-c2c(C)n(Cc3c(F)cccc3C(F)(F)F)c(=O)n(C[C@H](NCCCC(=O)O)c3ccccc3)c2=O)c1F` [Vaginal elagolix suppository, elagolix]?
A: % Drop in blood LH hormone level ([1]; Example 2, vaginal elagolix suppository 50 mg days 9 and 11, individual patients 1-5): 85.7% and 65.9% and 68.6% and 79.3% and 88.6%; LH blood hormone level (mIU/mL) AFTER medication intake [1, 3]: 1.0 mIU/mL and 5.7 mIU/mL and 3.2 mIU/mL and 1.7 mIU/mL and 0.8 mIU/mL; LH blood hormone level (mIU/mL) BEFORE medication intake [1, 3]: 7.0 mIU/mL and 16.7 mIU/mL and 10.2 mIU/mL and 8.2 mIU/mL and 7 mIU/mL; Luteinizing hormone (LH) blood level ([1]; day 11): 7.0 mIU/mL; drop in LH blood hormone levels ([1]; day 11 to day 13): 85.7%; Luteinizing hormone (LH) blood level ([1]; day 13): 1.0 mIU/mL

Q: For ganirelix acetate, which “% Drop in blood LH hormone level” value ([2]; Example 1, conventional injectables, individual patients 1-5) is on record?
A: Its value is 53.5% and 47.5% and 59.2% and 11.1% and 3.4%.

Q: And the “LH blood hormone level (mIU/mL) AFTER medication intake” value [2, 4]?
A: Its value is 2.0 mIU/mL and 6.3 mIU/mL and 4.9 mIU/mL and 16.0 mIU/mL and 14.1 mIU/mL.

Q: And the “LH blood hormone level (mIU/mL) BEFORE medication intake” value [2, 4]?
A: Its value is 4.3 mIU/mL and 12.0 mIU/mL (2×) and 18.0 mIU/mL and 14.6 mIU/mL.

Q: What about the “Luteinizing hormone (LH) blood level” value ([2]; patient no. 1, day 10, half a syringe ganirelix acetate days 11 and 12, 150 Units FSH) of the same compound?
A: Its value is 4.3 mIU/mL.

Q: What about the “drop in LH blood hormone levels” value ([2]; patient no. 1, day 10 to day 12) of the same compound?
A: The value was 53.5%.

Q: And the “Luteinizing hormone (LH) blood level” value ([2]; patient no. 1, day 12, half a syringe ganirelix acetate days 11 and 12, 150 Units FSH)?
A: Its value is 2 mIU/mL.

Q: What about the “Luteinizing hormone (LH) blood level” value ([2]; patient no. 2, day 11, half a syringe ganirelix acetate days 11 to 13, 75 Units FSH) of the same compound?
A: The value was 12.0 mIU/mL.

Q: And the “drop in LH blood hormone levels” value ([2]; patient no. 2, day 11 to day 13)?
A: The value was 47.5%.

Q: What about the “Luteinizing hormone (LH) blood level” value ([2]; patient no. 2, day 13, half a syringe ganirelix acetate days 11 to 13, 75 Units FSH) of the same compound?
A: The value was 6.3 mIU/mL.

Q: What about the “Luteinizing hormone (LH) blood level” value ([2]; patient no. 3, day 10, one third a syringe ganirelix acetate days 11 to 13, 75 Units FSH) of the same compound?
A: The value was 12.0 mIU/mL.

Q: What about the “drop in LH blood hormone levels” value ([2]; patient no. 3, day 10 to day 12) of the same compound?
A: The value was 59.25.

Q: What about the “Luteinizing hormone (LH) blood level” value ([2]; patient no. 3, day 12, one third a syringe ganirelix acetate days 11 to 13, 75 Units FSH) of the same compound?
A: Its value is 4.9 mIU/mL.

Q: And the “Luteinizing hormone (LH) blood level” value ([2]; patient no. 4, day 10, one third a syringe ganirelix acetate days 11 to 13, 150 Units FSH)?
A: Its value is 18.0 mIU/mL.

Q: What about the “drop in LH blood hormone levels” value ([2]; patient no. 4, day 10 to day 12) of the same compound?
A: Its value is 11.1%.

Q: What about the “Luteinizing hormone (LH) blood level” value ([2]; patient no. 4, day 12, one third a syringe ganirelix acetate days 11 to 13, 150 Units FSH) of the same compound?
A: Its value is 16.0 mIU/mL.

Q: And the “Luteinizing hormone (LH) blood level” value ([2]; patient no. 5, day 10, one third a syringe ganirelix acetate days 11 to 13, 225 Units FSH, no clomiphene citrate or letrozole)?
A: Its value is 14.6 mIU/mL.

Q: And the “drop in LH blood hormone levels” value ([2]; patient no. 5, day 10 to day 12)?
A: The value was 3.4%.

Q: And the “Luteinizing hormone (LH) blood level” value ([2]; patient no. 5, day 12, one third a syringe ganirelix acetate days 11 to 13, 225 Units FSH, no clomiphene citrate or letrozole)?
A: Its value is 14.1 mIU/mL.
